Consider 4 molecules from patent publication US10512600B2, “RNA complexes that inhibit melanin production” (OliX Pharmaceuticals, Inc., priority 2015, dated 2019).

Like-named read-outs stand apart in the source and are kept apart here. Oligonucleotides are written 5' to 3', each unit as a sugar letter and its base; * is a phosphorothioate linkage, no mark a phosphodiester; rarer units and linkages stand in square brackets, end groups in braces. Plain capitals give the bases only. {Chol} = cholesterol conjugate; m = 2'-O-methyl; r = 2'-OH (RNA)

Series [1] deals with HaCaT cells. The series is described as follows: Cytotoxicity (LDH, CytoTox96) and cell viability (CCK-8) in HaCaT cells. The note with it: 24 hours, LDH and CCK-8 assays, FIG. 6.
Procedure: (§4) One day before treatment with cp-asiRNA(4)-1, 5.0×10^3MNT-1 cells or 1.0×10^4 HaCaT cells were seeded into 96 well plates. Immediately before treatment, the cells were washed with 1×DPBS buffer (Gibco), and then cultured in the presence of 1 μM or 3 μM of cp-asiRNATYR(4)-1 in OPTI-MEM buffer for 24 hours, at which point the cytotoxicity level was measured using a CytoTox96 Non-Radio Cytotoxicity assay (Promega) according to manufacturer's instructions. The media was then replaced with the serum-containing media and cell viability was measured using a cell counting kit-8 (Enzo) according to manufacturer's instructions.
Series [2] has as its system MNT-1 cells. The experiment in a line: Melanin content assay in treated MNT-1 cells. The series is classed as cell-based, human. To be noted: 1 μM, 72 hours. The protocol: (§1) MNT-1 cells were cultured in Minimum Essential Media (Welgene) containing 20% fetal bovine serum (Gibco), 100 μg/ml penicillin/streptomycin, 10% 200 mM HEPES (Welgene) and 10% Dulbecco's modified Eagle's medium (Welgene). One day prior to treatment, 6.5×10^4MNT-1 cells were seeded in 12-well plates.
MNT-1 cells treated with cp-asiTYR(4)-1 as described above were tested for melanin content. After 72 hours of incubation in the presence of cp-asiTYR, the MNT-1 cells were collected, lysed with RIPA buffer (GE) and centrifuged at 13000 rpm. The resulting melanin pellet was dissolved in 100 μL of 1N NaOH (containing 10% DMSO) at 85° C. for 15 minutes and light absorption and melanin production were measured.
MNT-1 cells treated with cp-asiTYR(4) 21AS-1 or cp-asiTYR(4) 19AS-5 as described above were tested for melanin content. After 72 hours of incubation in the presence of cp-asiTYR, the MNT-1 cells were collected, lysed with RIPA buffer (GE) and centrifuged at 13000 rpm. The resulting melanin pellet was dissolved in 100 μL of 1N NaOH (containing 10% DMSO) at 85° C. for 15 minutes and light absorption and melanin production were measured.
MNT-1 cells were cultured in Minimum Essential Media (Welgene) containing 20% fetal bovine serum (Gibco), 100 μg/ml penicillin/streptomycin, 10% 200 mM HEPES (Welgene) and 10% Dulbecco's modified Eagle's medium (Welgene). One day prior to treatment, 6.5×10^4MNT-1 cells were seeded in 12-well plates. Four hours prior to treatment, the cell media was replaced with 900 μL of FBS-containing media. The PF6-complexed asiRNA or lasiRNA was added to the cells and the cells were incubated for 24 hours, at which point the media was replaced. Tyrosinase mRNA levels were measured using real-time RT-PCR 24 hours after media replacement.
To test the treated MNT-1 cells for tyrosinase protein expression and melanin production, western blot and melanin content assays were performed as described above 48 hours after media replacement.

The test system of series [3] is tyrosinase protein. The experiment in a line: Western blot of tyrosinase protein expression in treated MNT-1 cells. The series is classed as cell-based, human. The method, then:
as §1
(§2) After 72 hours of cp-asiTYR(4)-1 incubation, the level of tyrosinase protein expression was determined via western blot. Briefly, the treated MNT-1 cells were lysed with RIPA buffer (GE). Fifteen μg of the total protein extract were loaded onto a 12% SDS-PAGE gel and electrophoresed at 120 V. After electrophoresis, the proteins were transferred to PVDF membrane (Bio-rad) already activated by methanol (Merck) for 1 hour at 300 mA. The membrane was blocked for 1 hour at the room temperature with 5% skim milk (Seoul Milk) and then incubated overnight at 4° C. in 5% skim milk containing anti-tyrosinase antibody (Santa Cruz) and anti-β-actin antibody (Santa Cruz). The membrane was then washed with 1×TBST for 10 minutes three times and was incubated for 1 hour at the room temperature in 5% skim milk with HRP-conjugated secondary antibody. The membrane was washed with 1×TBST for 10 minutes and treated with 1×ECL for 1 minute. The tyrosinase and β-actin bands were then imaged using a Chemidoc instrument (Bio-rad).
as §2, with “The level” for “After 72 hours of cp-asiTYR(4)-1 incubation, the level”, “expression by MNT-1 cells after treatment with 1 μM and 3 μM cp-asiRNAs” for “expression”, “the transfected” for “the treated”
The level of tyrosinase protein expression by MNT-1 cells after treatment with 1 μM, 0.6 μM, 0.3 μM and 0.1 μM cp-asiRNAs was determined via western blot. Briefly, the transfected MNT-1 cells were lysed with RIPA buffer (GE). […]

The subject of series [4] is MNT-1 cells. The series is described as follows: Color change (lightening) of MNT-1 cell pellets. The series is classed as cell-based, human. To be noted: 1 μM or 3 μM, 72 hours, FIG. 5. The protocol: as §1
After 72 hours, cells were pelleted and the color change of the cells was observed.

The test system of series [5] is MNT-1 cells. The experiment in a line: Cytotoxicity (LDH, CytoTox96) and cell viability (CCK-8) in MNT-1 cells. It counts as cell-based, human. The note with it: 24 hours, LDH and CCK-8 assays, FIG. 6.
Procedure: as §4
Another series concerns tyrosinase mRNA. The experiment in a line: Tyrosinase mRNA level in reconstructed skin model MEL-300-B by real-time PCR. The series is classed as cell-based. The note with it: 5 μM every day for 13 days, day 14, FIG. 14(d). The method, then:
(§3) Tyrosinase expression and melanin level was analyzed in an cp-asiTYR#4-1 treated 3-D skin model. MEL-300-B (MatTek), a reconstructed skin model, was used in this study. MEL-300-B was stabilized in EPI-100-NMM-113 media 24 hours before treatment with cp-asiTYR#4-1. […] MEL-300-B samples were treated with cp-asiTYR#4-1 every day for 13 days (final concentration=5 μM) by adding cp-asiTYR#4-1 directly to the media. As a control, other MEL-300-B samples were treated with kojic acid (Sigma, 2% final) as depicted in FIG. 14(a). The samples were harvested at day 14 and the melanocytes in the sample were analyzed using light microscopy. […] Melanin level in each sample was analyzed using Fontana-Massons staining.
In order to analyze mRNA level at day 14, samples were harvested in Isol-RNA lysis reagent (5PRIME) and homogenized by using a homogenizer (IKA). Total RNA from the each sample was extracted. For each sample, 500 ng of the extracted RNA was used for cDNA synthesis using the high-capacity cDNA reverse transcription kit (Applied Biosystems) according to the manufacturer's instructions. Quantitative real-time PCR was then performed using the StepOne real-time PCR system (Applied Biosystems). Amplification of the tyrosinase cDNA was detected using a power SYBR green PCR master Mix (Applied Biosystems). GAPDH was amplified as an internal control.

For series [6], the system named is HaCaT cells.
Procedure: as §4
The test system of series [7] is MEL-300-B reconstructed skin model. The series is described as follows: Melanin content assay in reconstructed skin model MEL-300-B. It counts as cell-based. The note with it: 5 μM every day for 13 days, day 14, FIG. 14(f). The method, then:
as §3
To test melanin content, samples were harvested at day 14, lysed with RIPA buffer (GE) and centrifuged at 13000 rpm. The resulting pellet was dissolved in 100 μL of 1N NaOH (containing 10% DMSO) at 85° C. for 15 minutes and light absorption and melanin production were measured.

For series [8] the test system is unchanged. The series is described as follows: Fontana-Massons staining for melanin in reconstructed skin model MEL-300-B. It counts as cell-based. To be noted: 5 μM every day for 13 days, day 14, Fontana-Massons staining. The method, then:
as §3

The test system is the same in series [9]. The experiment in a line: Light microscopy of melanocytes in reconstructed skin model MEL-300-B. The series is classed as cell-based. The note with it: 5 μM every day for 13 days, day 14, light microscopy. The protocol: as §3
Series [10] relates to tyrosinase protein. The series is described as follows: Western blot of tyrosinase protein in reconstructed skin model MEL-300-B. The series is classed as cell-based. To be noted: 5 μM every day for 13 days, day 14, FIG. 14e. The protocol: as §3
Protein level analysis was conducted as using western blot. Harvested samples in RIPA buffer (GE) were homogenized by using homogenizer (IKA) and protein from the each sample was obtained. Fifteen micrograms of the total protein extract were loaded onto a 12% SDS-PAGE gel and electrophoresed at 120 V. After electrophoresis, the proteins were transferred to PVDF membrane (Bio-rad) that had been previously activated with methanol (Merck) for 1 hour at 300 mA. The membrane was blocked for 1 hour at the room temperature with 5% skim milk (Seoul Milk) and then incubated overnight at 4° C. in 5% skim milk containing anti-tyrosinase antibody (Santa Cruz) and anti-β-actin antibody (Santa Cruz). […]

As to `OC[C@H]1O[C@@H](Oc2ccc(O)cc2)[C@H](O)[C@@H](O)[C@@H]1O` [arbutin], the “cytotoxicity / cell viability” value with HaCaT cells [1] is “cytotoxicity was observed”.
As for `Oc1ccc(O)cc1` [hydroquinone], in the series with HaCaT cells [1], the “cytotoxicity / cell viability” value is recorded as “cytotoxicity was observed”.
“cp-asiTYR(4) 19AS-5: S: GCUGACAGGAGAUG*A*A*cholesterol (SEQ ID NO: 131); AS: UUCAUCUCCUGUCAG*C*mU*mU*mC (SEQ ID NO: 160) (sense rGrCrUrGrArCrArGrGrArGrArUrG*rA*rA*{Chol}; antisense rUrUrCrArUrCrUrCrCrUrGrUrCrArG*rC*mU*mU*mC; siRNA)”: in the series on MNT-1 cells [2] (FIG. 9), the “inhibition in melanin production” value is listed as roughly 50% and the “inhibition in melanin production compared with arbutin” value is recorded as “higher than the inhibition shown in MNT-1 cells treated with 2 mM arbutin”. For the same molecule, in the series with tyrosinase protein [3] (1 μM and 3 μM, FIG. 8), the “relative inhibitory activity on tyrosinase protein” value is “slightly higher inhibitory activity than cp-asiTYR(4) 21AS-1”.
Consider “cp-asiTYR(4)-1: S: GCUGACAGGAGAUG*A*A*cholesterol (SEQ ID NO: 131); AS: UUCAUCUCCUGUCAGCU*U*C*U*G (SEQ ID NO: 132) (sense GCUGACAGGAGAUGAA; antisense UUCAUCUCCUGUCAGCUUCUG; siRNA; sense: linkages o13 s2 (s phosphorothioate, o phosphodiester), 3' *{Chol}, sugars by position and methylation of C not given here; antisense: linkages o16 s4 (s phosphorothioate, o phosphodiester), sugars by position and methylation of C not given here)”, for which the “color of treated cells” value in the series with MNT-1 cells [4] is “lighter than untreated MNT-1 control cells (NT), hydroquinone treated cells and arbutin treated cells”. Further, the “cytotoxicity / cell viability” value with MNT-1 cells [5] and in the series on HaCaT cells [6] was “no cytotoxicity or loss of cell viability was observed” throughout. Also, the “level of tyrosinase mRNA” value with tyrosinase mRNA was “reduced the level of tyrosinase mRNA”. In addition, in [7], the “melanin level (melanin content)” value is listed as “reduced melanin level”. Moreover, the level of melanin entry in series [8] is “reduced the level of melanin”. The “inhibition in melanin production compared with hydroquinone and arbutin” value in the series with MNT-1 cells [2] (FIG. 4) was “higher than when treated with compounds commonly used for melanin production, including hydroquinone (20 μM) and arbutin (2 mM)”. Further, the “inhibition in melanin production” value is roughly 50% with MNT-1 cells [2] (FIG. 9) and “greater than 60%” in the series with MNT-1 cells [2] (without transfection vehicle, FIG. 4). Further, the “inhibition in melanin production compared with arbutin” value in the series with MNT-1 cells [2] (FIG. 9) was “higher than the inhibition shown in MNT-1 cells treated with 2 mM arbutin”. Moreover, in [9], the level of melanocytes result is “reduced the level of melanocytes”. Moreover, in the series with tyrosinase protein [10], the tyrosinase protein level entry is “potent knockdown of tyrosinase protein”. This molecule also registered a tyrosinase protein inhibition in the series with tyrosinase protein [3] (1 μM or 3 μM, 72 hours, without transfection vehicle, FIG. 3) of no less than 70%. Besides, in the series on tyrosinase protein [3] (1 μM to 0.1 μM, FIG. 10), the “relative inhibitory activity on tyrosinase protein” value is recorded as “slightly higher inhibitory activity than cp-asiTYR(4) 19AS-7”. The “tyrosinase inhibition ability compared with other tyrosinase inhibitors” value with tyrosinase protein [3] (72 hours, western blot, FIG. 3) was “higher efficiency in the tyrosinase inhibition ability than other tyrosinase inhibitors such as Hydroquinone and Arbutin”.
